The values below come from patent US8729047B2, “Compositions for inhibiting redox-sensitive GTPases” (Board of Regents, The University of Texas System, priority 2010, dated 2014).

The subject of one data set is Rho GTPases. Description: Binding of 6-TGDP compared with GDP (Example 2). The conditions noted are these: Example 2, FIG. 13 values. On the procedure:
The true dissociation constant (^trueKD 6-TGDP) of Ras, RhoC, RhoA and Rac1 for 6-TGDP was then calculated to be ˜20.7 pM, 212 μM, 208 μM, and 158 μM [6-TGDP] by using a compensation equation, ^trueKD 6-TGDP=^appKD 6-TGDP/(1+[GDP]/^trueKD GDP) (95), in conjunction with the values given [(^appKD 6-TGDP of Ras, RhoC, RhoA, and Rac1=2300, 230, 224, and 245 μM (FIG. 13) and ^trueKD GDP=9 pM, 12 μM, 13 μM and 1.8 μM, respectively. The ^trueKD GDP of Ras, RhoA and Rac1 was determined previously (Lenzen et al. Biochemistry 37, 7420-7430 (1998); Heo et al. Biochemistry 44, 6573-6585 (2005)) and the ^trueKD GDP of RhoC was further determined. Example: ^trueKD 6-TGDP for Ras=2300 μM/(1+1 μM GDP/[…])=[…] [6-TGDP]].

Another data set concerns Rho proteins. The data set is described as follows: Binding affinity of 6-TGDP compared with GDP (Example 3). The conditions noted are these: all examined Rho proteins; FIG. 16A. On the procedure:
(a) A competitive binding assay was performed to determine the binding affinity of Rho GTPase and 6-TGDP. The radiolabeled [^3H]GDP-loaded Rho protein (1 μM) was titrated with various concentrations of 6-TGDP. The titrated Rho protein sample then was spotted onto a nitrocellulose membrane. Each membrane was washed three times with the assay buffer, and radioactivity was determined using a Beckman-Coulter scintillation counter. The radioactivity of the sample (Rho protein-bound [^3H]GDP) was converted into, and thus plotted, as the fraction of mol GDP per mol total Rho protein. The apparent dissociation constant (^appKD) of the Rho protein with [^3H]GDP in the presence of 6-TGDP was determined by using Prism software to fit the titration curve to a hyperbola.
The RhoC and mutant RhoC bound GDP also can be competitively displaced with 6-TGDP (FIG. 16A). The binding affinities that 6-TGDP has for all of these examined Rho proteins are ˜2-fold weaker than that of GDP for Rho proteins (FIG. 16A).

In a further data set the target is Rac1 (Homo sapiens, UniProt P63000). Also noted: made in house; host or cells: E. coli. The settings on record: determined previously; read-out: trueKD GDP; cited from earlier work.
Another data set has as its target RhoC (Homo sapiens, UniProt P08134). The data set is described as follows: Co-IP mass spectrometry of thioguanine nucleotide disulfide adduct. Type of data set: cell-based. Details: endogenous in cells; host or cells: SUM149, SUM102, SW480, HCCLM3 (endogenous); HME-RhoC (transfected with wild type RhoC). On the procedure:
FIG. 6. Detection of unusual 6-TGNP adduct from HME-RhoC cells. […] A monoclonal RhoC antibody (Biocompare, South San Francisco, Calif.) and a “Mammalian Co-Immunoprecipitation Kit” (Pierce) were used for the analyses of the RhoC 6-TGNP interaction in HME-RhoC cells. The immunoprecipitated RhoC sample was suspended in 50% methanol:0.1% formic acid. The protein portion and RhoC-released nucleotide were separated by a brief centrifugation (3000×g for 5 min). The protein portion from the immunoprecipitated RhoC was resuspended in the assay buffer (pH 7.5), digested with trypsin for 10 h, and analyzed with MALDI-TOF tandem mass spectrometry. The MALDI-TOF peak at 1476.6 Da represents peptide-6-TGDP adduct; TC^20LLIVFSK-6-TGDP (SEQ ID NO:4).
FIG. 15. Detection of unusual 6-TGNP adduct from SUM and HME-RhoC cells. The ESI-MS and MS/MS methods to detect and identify a chemically modified RhoC residue are described elsewhere herein. […] The left and right columns, respectively, denote any of the RhoC samples taken from SUM and HME cells. As indicated, a mixture of samples taken from untreated SUM149 and SUM102 cells was used as a control for the experiment shown in the left column. For the right column, a mixture of samples taken from HME-RhoC and […] cells was used as a control. (B) A MS/MS analysis was performed with the ESI-MS sample of 6-TG-treated SUM149 cells to identify a biomolecule that have a mass of 1481.6 Da. […]
Cell lysates in an extraction buffer were incubated with a monoclonal anti-RhoC antibody precoupled to glutathione-agarose beads. […] The protein portion from the immunoprecipitated RhoC was resuspended in a buffer containing 1 mM EDTA and 0.1 mM DTPA in 50 mM TrisHCl (pH 7.4), then digested with trypsin for 10 h, and analyzed with electrospray mass spectrometry (ESI-MS) and tandem mass spectrometry (MS/MS) in the positive ion mode ([molecular mass+H]^+).

A further data set relates to A7r5 cells. The data set is described as follows: Viability / cytotoxicity of A7r5 cells. The settings on record: 5 days of treatment; FIG. 24. Type of data set: cell-based, rat. From the text:
FIG. 24. Effects of 6- and 8-TG on A7r5 cells. Treatment of cells with 6- or 8-TG is described in FIGS. 19 and 21. The image associated with the effect of 6- or 8-TG was taken after 5 days of treatment.

Chain of RhoC (P08134 whole entry): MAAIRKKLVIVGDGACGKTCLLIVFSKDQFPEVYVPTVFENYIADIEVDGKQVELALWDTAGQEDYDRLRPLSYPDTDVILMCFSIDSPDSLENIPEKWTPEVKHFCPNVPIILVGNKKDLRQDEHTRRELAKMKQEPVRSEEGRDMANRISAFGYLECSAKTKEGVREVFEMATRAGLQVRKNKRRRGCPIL

As for `Nc1nc2c(ncn2[C@@H]2O[C@H](COP(=O)(O)OP(=O)(O)O)[C@@H](O)[C@H]2O)c(=S)[nH]1` [6-TGDP, 6-thioguanosine diphosphate], the “binding interaction with 6-TGDP weaker than with GDP” value with Rho GTPases is listed as about 15 fold. In addition, in the data set with Rho proteins, the “binding affinity of 6-TGDP weaker than that of GDP” value is on record as about 2 fold.

On to `Nc1nc2c(ncn2[C@@H]2O[C@H](COP(=O)(O)OP(=O)(O)O)[C@@H](O)[C@H]2O)c(=O)[nH]1` [GDP], for which the Kd on Rac1 was 1800 nM.

As for `Nc1nc2nc[nH]c2c(=S)[nH]1` [6-TG, 6-thioguanine], on RhoC (6-TG in the presence of a NO donor), the “peak assigned to RhoC-6-TGDP adduct” value is “increased”. Also, at RhoC (HME-RhoC cells, 6-TG 1 μM every 48 h, 5 days, FIG. 6), the “peptide-6-TGDP adduct (TC20LLIVFSK-6-TGDP) by MALDI-TOF” value is listed as “detected”. The “RhoC-derived peptide-6-TGDP disulfide adduct mass peak by ESI-MS” value on RhoC (co-IPed RhoC from SUM149 and HME-RhoC cells treated with 6-TG, FIG. 15A) is “commonly exhibited”.

Regarding `Nc1nc2[nH]c(S)nc2c(=O)[nH]1` [8-TG, 2-amino-8-mercapto-1H-purin-6(9H)-one], in the data set on A7r5 cells, the “viability / cytotoxicity of A7r5 cells” value was “did not alter the viability”.
